The text below walks through data of article PMC8766184, “Molecular Docking, Synthesis, and Tyrosinase Inhibition Activity of Acetophenone Amide: Potential Inhibitor of Melanogenesis” (BioMed Research International, 2022).

As usually defined, the IC50 is the concentration at which inhibition is half-maximal. As usually defined, the melting point is the temperature of the solid-liquid transition. Usually Ki stands for a dissociation constant, usually derived from enzyme kinetics or from competition with a known ligand.

Like-named read-outs stand apart in the source and are kept apart here.

Data set [1] has as its target T1, mushroom tyrosinase (Agaricus bisporus, UniProt C7FF04).
T1 construct: purchased Sigma Aldrich
As to the kind of experiment: In vitro mushroom tyrosinase inhibition assay (L-DOPA substrate, dopachrome absorbance). Type of data set: biochemical.
Method: In vitro antityrosinase potential was determined following the method previously described with little modifications [33, 34]. Briefly, 140 μL of sodium phosphate buffer, 20 μL (30 U/mL) of the enzyme mushroom tyrosinase, and 20 μL of the tested compound were added in a well of a 96-well microplate. After a preincubation of 10 minutes at room temperature of 20 μL (0.85 mM), the substrate L-DOPA was added followed by an incubation of 20 minutes at the same temperature. Subsequently, the absorbance of the intermediate dopachrome was recorded by using an Opti Max tunable microplate reader (Sunnyvale, USA) at 472 nm. […] The negative inhibitor was a phosphate buffer without an inhibitor.

Data set [2] has as its target T1, mushroom tyrosinase. Kind of data set: Mushroom tyrosinase inhibitory kinetics (Lineweaver-Burk and Dixon plots). The format is biochemical. The procedure:
Various concentrations of the inhibitor 5c were among 0.00 to 0.013 μM and that of L-DOPA was 0.00 to 0.0064 μM during all kinetic assays. For preincubation and calculations, the same protocol was followed as described in in vitro tyrosinase inhibition assay and continuous monitoring at 30 s interval for 5 minutes after adding the enzyme tyrosinase, and the formation of dopachrome was measured at 475 nm. The enzyme inhibitory action and the kind of inhibition were determined by the Lineweaver-Burk and Dixon plots. 1/V (inverse of velocities) versus 1/[S] (inverse of substrate concentration) mM^−1 were plotted to determine inhibition constant Ki.
The enzyme inhibitory interaction mechanism of 3(a–e) and 5(a–e) with the binding site of mushroom tyrosinase was determined using Michaelis-Menten kinetic studies. […] A striking reduction in the reaction rate in the presence of inhibitors refers to a decrease in the final absorbance in comparison to control without inhibitors. The inhibitory index of all these tested compounds varied depending upon the position of various substituents and classes of compounds [27]. Inhibition kinetics was analyzed by the Lineweaver-Burk and Dixon plots.

T1 sequence (C7FF04 1-392): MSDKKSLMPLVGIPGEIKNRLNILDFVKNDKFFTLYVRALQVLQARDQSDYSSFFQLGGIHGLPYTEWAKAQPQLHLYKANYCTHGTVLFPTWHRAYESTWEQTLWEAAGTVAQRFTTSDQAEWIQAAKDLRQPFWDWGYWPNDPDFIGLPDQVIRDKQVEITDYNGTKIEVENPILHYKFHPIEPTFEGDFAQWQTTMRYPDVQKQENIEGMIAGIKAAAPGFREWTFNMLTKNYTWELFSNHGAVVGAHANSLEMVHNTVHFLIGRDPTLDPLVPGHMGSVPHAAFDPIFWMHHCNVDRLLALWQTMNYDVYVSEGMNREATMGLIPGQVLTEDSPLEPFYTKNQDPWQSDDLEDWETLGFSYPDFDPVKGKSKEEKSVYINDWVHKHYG

Take `CC(=O)c1cccc(NC(=O)COC(=O)c2cc(O)cc(O)c2)c1` [Compound 3e, 2-(3-acetylphenylamino)-2-oxoethyl 3,5-dihydroxybenzoate]: half-maximal inhibition against mushroom tyrosinase [1] (IC50) required 255 ± 14.2 µM.
On to `CC(=O)c1cccc(NC(=O)COC(=O)/C=C/c2ccc(Cl)cc2)c1` [Compound 5d, 2-(3-acetylphenylamino)-2-oxoethyl(E)-3-(4-chlorophenyl)acrylate], for which the IC50 at mushroom tyrosinase [1] is 61.6 ± 11.4 µM.
On the same count and under the same terms, next, `CC(=O)c1cccc(NC(=O)COC(=O)c2ccc(O)cc2O)c1` [Compound 3c, 2-(3-acetylphenylamino)-2-oxoethyl 2,4-dihydroxybenzoate]: 27.4 ± 3.6 µM.
Turning to `CC(=O)c1cccc(NC(=O)COC(=O)C=Cc2ccccc2)c1` [Compound 5a, 2-(3-acetylphenylamino)-2-oxoethylcinnamate], the melting point lay within 159 to 161 °C. Further, the IC50 against mushroom tyrosinase [1] came to 46.4 ± 5.8 µM.
For `CC(=O)c1cccc(NC(=O)COC(=O)/C=C/c2ccc(O)cc2O)c1` [Compound 5c, 2-(3-acetylphenylamino)-2-oxoethyl(E)-3-(2,4-dihydroxyphenyl)acrylate], the inhibition constant Ki at mushroom tyrosinase [2] (Dixon plot, L-DOPA substrate, read-out: dissociation constant (Ki)) came out at 0.0072 µM. Moreover, the type of inhibition result on mushroom tyrosinase [2] (Lineweaver-Burk plot, L-DOPA substrate) is on record as “competitive”. Besides, on mushroom tyrosinase [2] (remaining enzyme activity vs enzyme concentration at various inhibitor doses, L-DOPA), the reversibility of inhibition result is “reversible”. The half-inhibitory concentration (IC50) at mushroom tyrosinase [1] (L-DOPA 0.85 mM substrate, enzyme 30 U/mL, absorbance at 472 nm, read-out: Mushroom tyrosinase inhibition IC50 ± SEM) was found to be 0.002 ± 0.0002 µM.
With `CC(=O)c1cccc(NC(=O)COC(=O)c2ccc(O)cc2)c1` [Compound 3b, 2-(3-acetylphenylamino)-2-oxoethyl-4-hydroxybenzoate], 288 ± 32.2 µM corresponded to half-maximal inhibition on mushroom tyrosinase [1] (IC50).
Take `CC(=O)c1cccc(NC(=O)COC(=O)c2ccc(O)c(O)c2)c1` [Compound 3d, 2-(3-acetylphenylamino)-2-oxoethyl 3,4-dihydroxybenzoate]: half-maximal inhibition against mushroom tyrosinase [1] (IC50) was put at 128 ± 8.5 µM.
On to `CC(=O)c1cccc(NC(=O)COC(=O)/C=C/c2ccc(O)cc2)c1` [Compound 5b, 2-(3-acetylphenylamino)-2-oxoethyl(E)-3-(4-hydroxyphenyl) acrylate], for which inhibition on mushroom tyrosinase [1] was half-maximal at 309 ± 36.8 µM (IC50).
Same read-out and setting: the result for `CC(=O)c1cccc(NC(=O)COC(=O)c2cccc(O)c2)c1` [Compound 3a, 2-(3-acetylphenylamino)-2-oxoethyl-3-hydroxybenzoate] reads 323 ± 16.9 µM.
